How the values were obtained:
CDK2 [1] = target: T1, CDK2 (Homo sapiens, UniProt P24941); experiment: High-throughput HTRF measurement of cellular endogenous CDK2 level (degradation, DC50/Dmax) in OVCAR3 cells, 6 h; type: cell-based; details: 6 h compound treatment, HTRF total CDK2, read-out: DC50_OVCAR3_6h
T1 construct: High-Throughput Measurement of Cellular Endogenous CDK2; endogenous in cells; host or cells: OVCAR3
In short: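 DC50 and Dmax were derived by four-parameter logistic fit of the […] TR-FRET ratio, scaled between DMSO (0% degradation) and lysis buffer (100%) controls. The ratio came from an HTRF total-CDK2 sandwich immunoassay on lysates of OVCAR3 cells given 0.03–1,000 nM compound for 6 hours.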

CDK2 [2] = target: T1, CDK2; experiment: Inhibition of CDK2: phospho-Rb (S807/811) HTRF measurement in OVCAR3 cells, 24 h; type: cell-based; details: 24 h compound treatment, read-out: pRB_OVCAR3_24h
In short: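 IC50 came from a four-parameter fit of DMSO-normalized TR-FRET ratios (665/620 nm) reporting phospho-Rb S807/811. Lysates were taken from OVCAR3 cultures treated 24 h with compound (0.3 to 10,000 nM) and incubated 4 h at room temperature with the antibody pair.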

| SMILES | DC50 (CDK2 [1]) | IC50 (CDK2 [2]) |
| --- | --- | --- |
| CC(Cc1cccc(S(=O)(=O)N2CCC(Nc3ncc(C(F)(F)F)cn3)CC2)c1)CN1CCC(c2ccc3c(N4CCC(=O)NC4=O)nn(C)c3c2)CC1 (centres unmarked) [Example 29] | 1 to 10 nM | 1 to 100 nM |
| Cn1nc(N2CCC(=O)NC2=O)c2ccc(C3CCN(CC4CCN(c5cccc(S(=O)(=O)N6CCC(Nc7ncc(Cl)cn7)CC6)c5)CC4)CC3)c(F)c21 [Example 95, 1-(6-(1-((1-(3-((4-((5-chloropyrimidin-2-yl)amino)piperidin-1-yl)sulfonyl)phenyl)-piperidin-4-yl)methyl)piperidin-4-yl)-7-fluoro-1-methyl-1H-indazol-3-yl)dihydropyrimidine-2,4(1H,3H)-dione] | 1 to 10 nM | 1 to 100 nM |
| Cn1nc(N2CCC(=O)NC2=O)c2ccc(C3CCN(CC4CCN(c5cc(F)cc(S(=O)(=O)N6CCC(Nc7ncc(Cl)cn7)CC6)c5)CC4)CC3)cc21 [Example 147, 1-(6-(1-((1-(3-((4-((5-chloropyrimidin-2-yl)amino)piperidin-1-yl)sulfonyl)-5-fluorophenyl)piperidin-4-yl)methyl)piperidin-4-yl)-1-methyl-1H-indazol-3-yl)dihydropyrimidine-2,4(1H,3H)-dione] | 1 to 10 nM | 1 to 100 nM |
| CC(Cc1cccc(S(=O)(=O)N2CCC(Nc3ncc(OC(F)F)cn3)CC2)c1)CN1CCC(c2ccc3c(N4CCC(=O)NC4=O)nn(C)c3c2)CC1 (centres unmarked) [Example 66, 1-(6-(1-(3-(3-((4-((5-(difluoromethoxy)-pyrimidin-2-yl)amino)piperidin-1-yl)sulfonyl)phenyl)-2-methylpropyl)-piperidin-4-yl)-1-methyl-1H-indazol-3-yl)dihydropyrimidine-2,4(1H,3H)-dione] | 1 to 10 nM | 1 to 100 nM |
| O=C1CCC(n2c(=O)oc3c(C4CCN(CC5CCN(c6cccc(S(=O)(=O)N7CCC(Nc8ncc(Cl)cn8)CC7)c6)CC5)CC4)cccc32)C(=O)N1 (centres unmarked) [Example 168, 3-(7-(1-((1-(3-((4-((5-chloropyrimidin-2-yl)amino)piperidin-1-yl)sulfonyl)phenyl)piperidin-4-yl)methyl)piperidin-4-yl)-2-oxobenzo[d]oxazol-3(2H)-yl)piperidine-2,6-dione] | 10 to 100 nM | 1 to 100 nM |
| Cn1nc(N2CCC(=O)NC2=O)c2ccc(C3CCN(Cc4cccc(S(=O)(=O)N5CCC(Nc6ncc(C(F)(F)F)cn6)CC5)c4)CC3)cc21 [Example 1] | 1 to 10 nM | 1 to 100 nM |
| CCc1cnc(NC2CCN(S(=O)(=O)c3cccc(CN4CCC(c5ccc6c(N7CCC(=O)NC7=O)nn(C)c6c5)CC4)c3)CC2)nc1 [Example 61, 1-(6-(1-(3-((4-((5-ethylpyrimidin-2-yl)amino)piperidin-1-yl)sulfonyl)benzyl)-piperidin-4-yl)-1-methyl-1H-indazol-3-yl)dihydropyrimidine-2,4(1H,3H)-dione] | 10 to 100 nM | 1 to 100 nM |
| Cn1nc(N2CCC(=O)NC2=O)c2ccc(C3CCN(CC4CCN(c5cc(S(=O)(=O)N6CCC(Nc7ncc(C(F)(F)F)cn7)CC6)ccc5C#N)CC4)CC3)cc21 [Example 152, 2-(4-((4-(3-(2,4-dioxotetrahydropyrimidin-1(2H)-yl)-1-methyl-1H-indazol-6-yl)piperidin-1-yl)methyl)piperidin-1-yl)-4-((4-((5-(trifluoromethyl)pyrimidin-2-yl)amino)piperidin-1-yl)sulfonyl)benzonitrile] | 1 to 10 nM | 1 to 100 nM |

Results, then the molecule that gave them:

| DC50 (CDK2 [1]) | IC50 (CDK2 [2]) | SMILES |
| --- | --- | --- |
| 1 to 10 nM | 1 to 100 nM | Cn1nc(N2CCC(=O)NC2=O)c2ccc(C3CCN(CC4CCN(c5cccc(S(=O)(=O)N6CCC(Nc7ncc(Cl)cn7)CC6)c5)C(=O)C4)CC3)cc21 (centres unmarked) [Example 234, 1-(6-(1-((1-(3-((4-((5-chloropyrimidin-2-yl)amino)piperidin-1-yl)sulfonyl)phenyl)-2-oxopiperidin-4-yl)methyl)piperidin-4-yl)-1-methyl-1H-indazol-3-yl)dihydropyrimidine-2,4(1H,3H)-dione] |
| 10 to 100 nM | 1 to 100 nM | O=C1CCC(c2csc3cc(C4CCN(CC5CCN(c6cccc(S(=O)(=O)N7CCC(Nc8ncc(C(F)(F)F)cn8)CC7)c6)CC5)CC4)ccc23)C(=O)N1 (centres unmarked) [Example 250, 3-(6-(1-((1-(3-((4-((5-(trifluoromethyl)pyrimidin-2-yl)amino)piperidin-1-yl)sulfonyl)phenyl)piperidin-4-yl)methyl)piperidin-4-yl)benzo[b]thiophen-3-yl)piperidine-2,6-dione] |
| 1 to 10 nM | 1 to 100 nM | C=Cc1cnc(NC2CCN(S(=O)(=O)c3cccc(N4CCC(CN5CCC(c6ccc7c(N8CCC(=O)NC8=O)nn(C)c7c6)CC5)CC4)c3)CC2)nc1 [Example 208, 1-(1-methyl-6-(1-((1-(3-((4-((5-vinylpyrimidin-2-yl)amino)piperidin-1-yl)sulfonyl)phenyl)piperidin-4-yl)methyl)piperidin-4-yl)-1H-indazol-3-yl)dihydropyrimidine-2,4(1H,3H)-dione] |
| 1 to 10 nM | 1 to 100 nM | Cn1nc(N2CCC(=O)NC2=O)c2ccc(C3CCN(Cc4ccc(S(=O)(=O)N5CCC(Nc6ncc(OC(F)F)cn6)CC5)cc4)CC3)cc21 [Example 241, 1-(6-(1-(4-((4-((5-(difluoromethoxy)pyrimidin-2-yl)amino)piperidin-1-yl)sulfonyl)benzyl)piperidin-4-yl)-1-methyl-1H-indazol-3-yl)dihydropyrimidine-2,4(1H,3H)-dione] |
| 1 to 10 nM | 1 to 100 nM | Cn1c(=O)n(C2CCC(=O)NC2=O)c2cccc(C3CCN(Cc4cc(F)cc(S(=O)(=O)N5CCC(Nc6ncc(OC(F)F)cn6)CC5)c4)CC3)c21 (centres unmarked) [Example 184, 3-(4-(1-(3-((4-((5-(difluoromethoxy)pyrimidin-2-yl)amino)piperidin-1-yl)sulfonyl)-5-fluorobenzyl)piperidin-4-yl)-3-methyl-2-oxo-2,3-dihydro-1H-benzo[d]imidazol-1-yl)piperidine-2,6-dione] |
| 10 to 100 nM | 1 to 100 nM | Cn1nc(N2CCC(=O)NC2=O)c2ccc(C3CCN(CC4(O)CCN(c5cc(S(=O)(=O)N6CCC(Nc7ncc(Cl)cn7)CC6)ccc5C#N)CC4)CC3)cc21 [Example 214, 4-((4-((5-chloropyrimidin-2-yl)amino)piperidin-1-yl)sulfonyl)-2-(4-((4-(3-(2,4-dioxotetrahydropyrimidin-1(2H)-yl)-1-methyl-1H-indazol-6-yl)piperidin-1-yl)methyl)-4-hydroxypiperidin-1-yl)benzonitrile] |
| 1 to 10 nM | 1 to 100 nM | Cn1nc(N2CCC(=O)NC2=O)c2ccc(C3CCN(CC4CCN(c5cccc(S(=O)(=O)N6CCC(Nc7ncc(Br)cn7)CC6)c5)CC4)CC3)cc21 [Example 199, 1-(6-(1-((1-(3-((4-((5-bromopyrimidin-2-yl)amino)piperidin-1-yl)sulfonyl)phenyl)piperidin-4-yl)methyl)piperidin-4-yl)-1-methyl-1H-indazol-3-yl)dihydropyrimidine-2,4(1H,3H)-dione] |
| 10 to 100 nM | 1 to 100 nM | Cn1nc(N2CCC(=O)NC2=O)c2ccc(C3CCC(CN4CCC(c5cccc(S(=O)(=O)N6CCC(Nc7ncc(C(F)(F)F)cn7)CC6)c5)CC4)CC3)cc21 (centres unmarked) [Example 238, 1-(1-methyl-6-(4-((4-(3-((4-((5-(trifluoromethyl)pyrimidin-2-yl)amino)piperidin-1-yl)sulfonyl)phenyl)piperidin-1-yl)methyl)cyclohexyl)-1H-indazol-3-yl)dihydropyrimidine-2,4(1H,3H)-dione] |
| 10 to 100 nM | 1 to 100 nM | Cn1c(=O)n(C2CCC(=O)NC2=O)c2c(F)ccc(C3CCN(CC4CCN(c5cc(S(=O)(=O)N6CCC(Nc7ncc(Cl)cn7)CC6)ccc5C#N)CC4)CC3)c21 (centres unmarked) [Example 220, 4-((4-((5-chloropyrimidin-2-yl)amino)piperidin-1-yl)sulfonyl)-2-(4-((4-(1-(2,6-dioxopiperidin-3-yl)-7-fluoro-3-methyl-2-oxo-2,3-dihydro-1H-benzo[d]imidazol-4-yl)piperidin-1-yl)methyl)piperidin-1-yl)benzonitrile] |
| 1 to 10 nM | 1 to 100 nM | O=C1CCN(c2noc3cc(C4CCN(CC5CCN(c6cccc(S(=O)(=O)N7CCC(Nc8ncc(Cl)cn8)CC7)c6)CC5)CC4)ccc23)C(=O)N1 [Example 221, 1-(6-(1-((1-(3-((4-((5-chloropyrimidin-2-yl)amino)piperidin-1-yl)sulfonyl)phenyl)piperidin-4-yl)methyl)piperidin-4-yl)benzo[d]isoxazol-3-yl)dihydropyrimidine-2,4(1H,3H)-dione] |
| 10 to 100 nM | 1 to 100 nM | Cn1c(=O)n(C2CCC(=O)NC2=O)c2cccc(N3CCN(CC4CCN(c5cc(S(=O)(=O)N6CCC(Nc7ncc(C(F)(F)F)cn7)CC6)ccc5C#N)CC4)CC3)c21 (centres unmarked) [Example 217, 2-(4-((4-(1-(2,6-dioxopiperidin-3-yl)-3-methyl-2-oxo-2,3-dihydro-1H-benzo[d]imidazol-4-yl)piperazin-1-yl)methyl)piperidin-1-yl)-4-((4-((5-(trifluoromethyl)pyrimidin-2-yl)amino)piperidin-1-yl)sulfonyl)benzonitrile] |
